The assay concerns patient of a nonalcoholic fatty liver disease (NAFLD). Nature of the assay: Effect of compound A on blood LDL-C and cholesterol synthesis/absorption markers in NAFLD patients, compared with placebo. The assay is classed as in vivo, human. As to conditions: for fasting blood LDL-C concentration (rate of change from baseline): FIG. 1.
The mark [1] stands for this setting: NAFLD patients, 0.4 mg per day oral, 8 weeks, vs placebo, FIG. 3.

The results in this text go back to patent US20260014122A1, “DRUG FOR LOWERING BLOOD LDL CHOLESTEROL” (KOWA COMPANY, LTD., priority 2022, published 2026).

`CC[C@@H](Oc1cccc(CN(CCCOc2ccc(OC)cc2)c2nc3ccccc3o2)c1)C(=O)O` [compound A, (R)-2-[3-[[N-(benzoxazol-2-yl)-N-3-(4-methoxyphenoxy)propyl]aminomethyl]phenoxy]butyric acid]: where the note is “NAFLD patients who did not take any existing agent for reducing LDL-C, 0.4 mg per day oral, 12 weeks, vs placebo”, the “fasting blood LDL-C concentration (rate of change from baseline)” value is “reduced a fasting blood LDL-C concentration as compared to the placebo administration”. Besides, under “NAFLD patients, entire group including patients taking an existing agent for reducing LDL-C, 0.4 mg per day oral (0.2 mg twice a day), 12 weeks, vs placebo”, the “fasting blood LDL-C concentration (rate of change from baseline)” value is on record as “reduced a fasting blood LDL-C concentration as compared to the placebo administration”. Further, under setting [1], the “fasting blood concentration of campesterol (absorption marker for cholesterol), rate of change from baseline” value is “reduced the fasting blood concentration of sitosterol and the fasting blood concentration of campesterol”; the “fasting blood concentration of lathosterol (synthesis marker for cholesterol), rate of change from baseline” value is listed as “reduced the fasting blood concentration of lathosterol”; the “fasting blood concentration of sitosterol (absorption marker for cholesterol), rate of change from baseline” value was “reduced the fasting blood concentration of sitosterol”. Moreover, the “reducing effect on LDL-C for each initial value of the blood LDL-C” value (NAFLD patients, 0.4 mg per day oral, 12 weeks, FIG. 2) is “became larger as the blood LDL-C concentration before the administration thereof increased”.
